≈ marks a conversion by molar mass, not a printed value.
What was measured:
Assay in all cases: MIC, agar dilution test (Isosensitest medium), Denley multipoint inoculator
Format in all cases: cell-based
[1] = test system: E. coli A 261; details: Escherichia coli, A261
Description: (§1) Agar dilution test (Isosensitest medium)
(§2) Denley multipoint inoculator

[2] = test system: E. coli Neumann; details: Escherichia coli
Description: as §1, §2

[3] = test system: E. coli T 7; details: Escherichia coli, T7
Description: as §1, §2

[4] = test system: Klebsiella 8085
Description: as §1, §2

Question: For Cc1c(F)cc2c(=O)c(C(=O)O)cn3c2c1OCC3 [Example 61], which MIC [1] is on record?
Answer: 0.5 µg/mL (≈ 1.9 µM)

Question: What about the MIC [2] of the same compound?
Answer: 0.125 µg/mL (≈ 0.475 µM)

Question: And the MIC [3]?
Answer: 0.5 µg/mL (≈ 1.9 µM)

Question: What about the MIC [4] of the same compound?
Answer: 0.125 µg/mL (≈ 0.475 µM)
